Test results as given in article PMC8540642, “Antineoplastic Activity of Rhus trilobata Nutt. (Anacardiaceae) against Ovarian Cancer and Identification of Active Metabolites in This Pathology” (Plants, 2021).
Like-named read-outs stand apart in the source and are kept apart here.

Columns and labels:
SKOV-3 cells [1] = assay: MTT cell viability, dose-response curves 24 h; assay type: cell-based, human; conditions: Homo sapiens, SK-OV-3, MTT, 24 h, read-out: IC50 (half-maximal inhibitory concentration), SKOV-3
Protocol: (§1) Cultures (2 × 10^4 cells/well) were seeded with 200 μL of supplemented medium (Sigma®) in 96-well plates (Corning®, Corning, NY, USA) and incubated for 24 h. Cell treatments were 5-200 μg/mL of samples/controls for 24 h. At the end of the treatments, we added MTT (5 mg/mL, Sigma®) for 4 h of incubation, and optical density was measured at λ = 590 nm in a VariosKan® Flash (Thermo-Scientific®, Waltham, MA, USA). The half-maximal inhibitory concentration (IC50) was determined.

BEAS-2B cells = assay: MTT cell viability, dose-response curves 24 h; assay type: cell-based; conditions: Homo sapiens, BEAS-2B, MTT, read-out: IC50 (half-maximal inhibitory concentration), BEAS-2B
Protocol: as §1

CACO-2 cells = assay: MTT cell viability, dose-response curves 24 h; assay type: cell-based; conditions: Homo sapiens, Caco-2, MTT, 24 h, read-out: IC50 (half-maximal inhibitory concentration), CACO-2
Protocol: as §1

CHO-K1 cells = assay: MTT cell viability, dose-response curves 24 h; assay type: cell-based; conditions: Cricetulus griseus, CHO-K1, 24 h, MTT, 24 h, read-out: IC50 (half-maximal inhibitory concentration), CHO-K1
Protocol: as §1

OVCAR-3 cells = assay: MTT cell viability, dose-response curves 24 h; assay type: cell-based; conditions: Homo sapiens, OVCAR-3, MTT, 24 h, read-out: IC50 (half-maximal inhibitory concentration), OVCAR-3
Protocol: as §1

SKOV-3 cells [2] = assay: Apoptosis (ApoTox-Glo Triplex caspase-3/7, ApoAlert DNA fragmentation/TUNEL); assay type: cell-based, human; conditions: 24 h, vehicle group 2.47% ± 0.4%
Protocol: Cells (2 × 10^4/per well) were cultivated in 96-well black plates (Corning®, Corning, NY, USA) with 100 μL of supplemented medium (Sigma®, St. Louis, MO, USA) and incubated for 24 h. Treatments on adherent cells were conducted at 5-20 μg/mL of samples/controls for 24 h. Then, ApoTox-Glo™ Triplex Assay (Promega®, Madison, WI, USA) was used to determine events of viability (proliferation), cytotoxicity (necrosis), and apoptosis (caspase-3/7 activation). Additionally, apoptosis was confirmed by an ApoAlert™ DNA Fragmentation Assay (Clontech®, Kusatsu, Shiga, J.P.). Both assays were performed according to each manufacturer’s instructions. Finally, optical density was measured in a VariosKan® Flash (Thermo-Scientific®, Waltham, MA, USA).

Compound: CC(=O)O[C@H]1C(=O)[C@@]2(C)[C@H]([C@H](OC(=O)c3ccccc3)[C@]3(O)C[C@H](OC(=O)[C@H](O)[C@@H](NC(=O)c4ccccc4)c4ccccc4)C(C)=C1C3(C)C)[C@]1(OC(C)=O)CO[C@@H]1C[C@@H]2O [Paclitaxel, paclitaxel, reference compound]
- IC50 (SKOV-3 cells [1]): 7 mg/L
- IC50 (SKOV-3 cells [1]; value in brackets): 8.2 µM
- IC50 (BEAS-2B cells): 8 mg/L
- IC50 (BEAS-2B cells; value in brackets): 9.37 µM
- IC50 (CACO-2 cells): 20 mg/L
- IC50 (CACO-2 cells; value in brackets): 23.4 µM
- IC50 (CHO-K1 cells): 10 mg/L
- IC50 (CHO-K1 cells; value in brackets): 11.7 µM
- IC50 (OVCAR-3 cells): 8 mg/L
- IC50 (OVCAR-3 cells; value in brackets): 9.37 µM
- apoptosis: caspase-3/7 activity and nuclear DNA-fragmentation (SKOV-3 cells [2]): 46.42% ± 5.0%
